Experimental data taken from patent US20230250054A1, “SELECTIVE HISTONE DEACETYLASE 6 INHIBITORS” (The Board of Trustees of the University of Illinois, priority 2020, published 2023).

Experiments:
HDAC5 = target: T1, HDAC5 (Homo sapiens, UniProt Q9UQL6); test: Fluorescence-based HDAC inhibition assay, HDAC5; type: biochemical; details: for IC50: 10 μM Boc-Lys(TFA)-AMC substrate, mean of two experiments ± SEM
T1 construct: made in house; host or cells: HEK293/T17 cells, transient transfection
Procedure: (§1) Briefly, transiently transfected cells were harvested three days post-transfection and the cell pellets resuspended in a lysis buffer (50 mM Tris, 150 mM NaCl, 10 mM KCl, 2 mM MgCl2, 10% glycerol, 0.2% NP-40, 2 Units/mL benzonase, pH 8) supplemented with a cocktail of protease inhibitors (Roche, Basel, Switzerland). Cells were lysed by sonication (30 W; 3×20 s) on ice, and the cell lysate cleared by centrifugation at 40 000×g for 30 min at 4° C. […] Purified proteins were concentrated to 1 mg/mL, aliquoted, flash-frozen in liquid nitrogen, and stored at −80° C. until further use.
(§2) Briefly, individual HDACs were preincubated with dilution series of tested inhibitors (0-100 μM) in a 384-well plate in the total volume of 40 μL for 10 min at 37° C. in a reaction buffer comprising 50 mM HEPES, 140 mM NaCl, 10 mM KCl, 1 mM TCEP, 0.1% BSA, pH 7.4. Deacetylation reaction was started by the addition of 10 μL of a 10 μM substrate into the HDAC/inhibitor mixture. Following the 30 min incubation at 37° C., the reaction was terminated by the addition of 25 μL of the trypsin solution (4 mg/mL). Fluorescence development by trypsin was carried out at 37° C. for 15 and 60 min for Ac-GAK(Ac)-AMC and Boc-Lys(TFA)-AMC substrate, respectively. […] Non-linear regression analysis was employed to calculate IC50 values using the GraphPad Prism software. […] Reactions without the enzyme or the inhibitor were used to define 0% and 100% of the HDAC activity, respectively.

HDAC7 = target: T2, HDAC7 (Homo sapiens, UniProt Q8WUI4); test: Fluorescence-based HDAC inhibition assay, HDAC7; type: biochemical; details: for IC50: 10 μM Boc-Lys(TFA)-AMC substrate, mean of two experiments ± SEM
T2 construct: made in house; host or cells: HEK293/T17 cells, transient transfection
T2 sequence (Q8WUI4 1-952): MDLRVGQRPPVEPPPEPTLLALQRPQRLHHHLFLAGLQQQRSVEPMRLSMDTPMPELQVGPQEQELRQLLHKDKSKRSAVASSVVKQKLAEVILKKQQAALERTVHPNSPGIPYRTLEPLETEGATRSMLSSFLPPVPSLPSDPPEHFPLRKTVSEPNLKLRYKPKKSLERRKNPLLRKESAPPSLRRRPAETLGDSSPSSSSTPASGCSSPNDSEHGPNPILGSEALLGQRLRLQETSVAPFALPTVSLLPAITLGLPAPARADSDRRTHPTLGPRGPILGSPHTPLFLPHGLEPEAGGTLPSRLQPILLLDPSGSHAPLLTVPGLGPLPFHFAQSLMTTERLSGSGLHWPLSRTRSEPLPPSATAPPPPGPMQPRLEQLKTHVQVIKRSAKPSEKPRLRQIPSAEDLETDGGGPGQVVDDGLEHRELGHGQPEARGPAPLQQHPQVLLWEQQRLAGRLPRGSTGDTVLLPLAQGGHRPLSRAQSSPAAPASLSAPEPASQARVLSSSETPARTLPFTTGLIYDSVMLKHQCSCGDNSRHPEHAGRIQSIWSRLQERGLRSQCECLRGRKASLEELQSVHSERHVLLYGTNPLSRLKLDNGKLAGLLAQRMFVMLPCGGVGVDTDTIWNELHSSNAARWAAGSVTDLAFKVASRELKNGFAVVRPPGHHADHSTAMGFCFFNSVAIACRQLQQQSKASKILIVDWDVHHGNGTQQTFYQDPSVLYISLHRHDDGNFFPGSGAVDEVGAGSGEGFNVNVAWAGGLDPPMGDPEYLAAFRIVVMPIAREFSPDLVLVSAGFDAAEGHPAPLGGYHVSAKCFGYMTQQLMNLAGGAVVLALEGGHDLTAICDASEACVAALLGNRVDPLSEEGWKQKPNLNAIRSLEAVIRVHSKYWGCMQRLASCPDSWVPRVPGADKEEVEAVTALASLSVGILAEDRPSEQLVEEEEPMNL
Procedure: as §1, §2

HDAC4 = HDAC4 (Homo sapiens, UniProt P56524); test: Fluorescence-based HDAC inhibition assay, HDAC4; type: biochemical; details: for IC50: 10 μM Boc-Lys(TFA)-AMC substrate, mean of two experiments ± SEM
HDAC4, sequence (P56524 whole entry): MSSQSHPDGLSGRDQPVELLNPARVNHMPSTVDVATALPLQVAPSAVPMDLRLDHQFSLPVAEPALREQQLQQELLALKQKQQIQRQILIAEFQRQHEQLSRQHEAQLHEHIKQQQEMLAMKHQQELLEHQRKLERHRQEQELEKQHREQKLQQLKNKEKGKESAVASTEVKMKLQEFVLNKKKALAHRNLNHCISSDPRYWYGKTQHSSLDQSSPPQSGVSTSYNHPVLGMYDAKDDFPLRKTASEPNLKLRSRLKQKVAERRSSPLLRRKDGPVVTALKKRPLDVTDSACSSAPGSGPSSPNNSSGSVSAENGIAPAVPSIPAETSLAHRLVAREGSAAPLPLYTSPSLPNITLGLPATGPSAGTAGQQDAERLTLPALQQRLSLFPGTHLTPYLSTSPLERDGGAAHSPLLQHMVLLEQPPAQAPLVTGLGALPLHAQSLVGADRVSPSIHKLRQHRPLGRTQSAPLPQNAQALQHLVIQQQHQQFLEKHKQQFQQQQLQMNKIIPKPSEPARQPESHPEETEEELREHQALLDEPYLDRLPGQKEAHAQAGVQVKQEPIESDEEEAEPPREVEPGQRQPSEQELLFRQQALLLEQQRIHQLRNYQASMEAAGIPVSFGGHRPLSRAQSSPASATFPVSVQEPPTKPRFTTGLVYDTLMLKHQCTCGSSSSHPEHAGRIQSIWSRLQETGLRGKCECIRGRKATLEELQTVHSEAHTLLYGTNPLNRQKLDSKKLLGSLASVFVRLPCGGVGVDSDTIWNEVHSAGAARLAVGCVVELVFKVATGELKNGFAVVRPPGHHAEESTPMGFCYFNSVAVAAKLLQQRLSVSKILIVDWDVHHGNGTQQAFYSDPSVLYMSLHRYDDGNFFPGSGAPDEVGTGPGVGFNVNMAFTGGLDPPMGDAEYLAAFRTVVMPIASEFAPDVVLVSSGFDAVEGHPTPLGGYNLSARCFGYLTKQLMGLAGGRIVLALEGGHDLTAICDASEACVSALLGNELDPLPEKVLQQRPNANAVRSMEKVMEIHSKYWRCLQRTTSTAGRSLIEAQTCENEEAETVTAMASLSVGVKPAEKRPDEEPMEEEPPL
Procedure: as §1, with “Large scale expression of human HDACs was carried out in HEK293/T17 cells essentially as described previously (see, e.g., Falkenberg et al., Nat. Rev. Drug Discov. 13, 673-691 (2014); or Matthias et al., Cell Cycle 7: 7-10 (2008)). Briefly,” for “Briefly,”
Briefly, individual HDACs were preincubated with dilution series of tested inhibitors (0-100 μM) in a 384-well plate in the total volume of 40 μL for 10 min at 37° C. in a reaction buffer comprising 50 mM HEPES, 140 mM NaCl, 10 mM KCl, 1 mM TCEP, 0.1% BSA, pH 7.4. Deacetylation reaction was started by the addition of 10 μL of a 10 μM substrate into the HDAC/inhibitor mixture. Following the 30 min incubation at 37° C., the reaction was terminated by the addition of 25 μL of the trypsin solution (4 mg/mL). Fluorescence development by trypsin was carried out at 37° C. for 15 and 60 min for Ac-GAK(Ac)-AMC and Boc-Lys(TFA)-AMC substrate, respectively. Released aminomethylcoumarin was quantified using a CLARIOstar fluorimeter with the excitation and emission wavelengths set to 365 nm and 440 nm, respectively. Non-linear regression analysis was employed to calculate IC50 values using the GraphPad Prism software. […] Reactions without the enzyme or the inhibitor were used to define 0% and 100% of the HDAC activity, respectively.

[1] = mean with standard error

T1 sequence (Q9UQL6 whole entry): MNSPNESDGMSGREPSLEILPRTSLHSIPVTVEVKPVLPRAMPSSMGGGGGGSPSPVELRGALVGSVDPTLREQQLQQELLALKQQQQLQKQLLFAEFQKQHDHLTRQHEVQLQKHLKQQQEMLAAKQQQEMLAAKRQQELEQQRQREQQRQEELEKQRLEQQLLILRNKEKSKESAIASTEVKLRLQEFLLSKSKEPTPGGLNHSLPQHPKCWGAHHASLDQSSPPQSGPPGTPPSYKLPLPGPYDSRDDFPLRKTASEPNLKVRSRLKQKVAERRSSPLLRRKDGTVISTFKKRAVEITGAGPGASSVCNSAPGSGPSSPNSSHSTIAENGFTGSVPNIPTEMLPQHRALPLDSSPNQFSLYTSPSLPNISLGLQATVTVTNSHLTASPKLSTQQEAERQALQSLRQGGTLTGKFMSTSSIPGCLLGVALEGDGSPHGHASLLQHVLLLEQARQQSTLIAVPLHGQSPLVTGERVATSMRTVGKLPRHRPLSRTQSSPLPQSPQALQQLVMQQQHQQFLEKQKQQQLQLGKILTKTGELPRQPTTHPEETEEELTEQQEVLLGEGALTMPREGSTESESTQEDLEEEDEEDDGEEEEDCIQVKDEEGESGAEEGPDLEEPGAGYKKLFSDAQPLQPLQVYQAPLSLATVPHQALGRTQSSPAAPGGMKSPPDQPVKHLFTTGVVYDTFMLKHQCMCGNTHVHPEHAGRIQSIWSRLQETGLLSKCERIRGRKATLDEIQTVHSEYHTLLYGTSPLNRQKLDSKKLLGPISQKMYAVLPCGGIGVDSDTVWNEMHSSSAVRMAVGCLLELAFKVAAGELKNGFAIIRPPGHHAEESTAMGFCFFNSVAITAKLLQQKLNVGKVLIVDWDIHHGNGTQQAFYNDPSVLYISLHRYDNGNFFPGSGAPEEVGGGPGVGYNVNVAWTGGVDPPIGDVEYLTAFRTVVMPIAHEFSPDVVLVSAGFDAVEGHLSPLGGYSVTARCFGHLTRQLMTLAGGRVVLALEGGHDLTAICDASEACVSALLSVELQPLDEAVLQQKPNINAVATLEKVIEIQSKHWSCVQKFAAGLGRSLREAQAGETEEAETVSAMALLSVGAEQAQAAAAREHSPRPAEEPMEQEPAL

Row | Compound | SI (HDAC6 selectivity index over HDAC5) (HDAC5) | IC50 (HDAC5) | SI (HDAC6 selectivity index over HDAC7) (HDAC7) | IC50 (HDAC7) | SI (HDAC6 selectivity index over HDAC4) (HDAC4) | IC50 (HDAC4) | Rat liver microsomes (t1/2, min) [1]
1 | NCc1ccc(NC(=O)N(CCCCO)Cc2ccc(C(=O)NO)cc2)cc1 [Compound 6a, 4-((3-(4-(Aminomethyl)phenyl)-1-(4-hydroxybutyl)ureido)methyl)-N-hydroxybenz-amide] | 8,550 | 3.42 µM | 3,680 | 1.47 µM | 20,600 | 8.25 µM | 177 min
2 | CCCCN(Cc1ccc(C(=O)NO)cc1)C(=O)Nc1ccc(CN)cc1 [Compound 6b, 4-((3-(4-(Aminomethyl)phenyl)-1-butylureido)methyl)-N-hydroxybenzamide] | 11,200 | 10.1 µM | 10,000 | 9 µM | 25,700 | 23.1 µM | 173 min
3 | O=C(NO)c1ccc(CN(CCCCO)C(=O)Nc2ccccc2)cc1 [Compound 6c, reference compound] |  | 9.13 µM |  | 1.93 µM |  | 14 µM | 198 min
